“Also recorded” adds a separate entry of the source. Where two headings read alike, the source gives them in different places. Square brackets hold non-standard residues; d marks the D form. Peptide text beside a SMILES is read from it. pS = N[C@@H](COP(=O)(O)O)C(=O)O
What was measured:
[1] = test system: male ICR Swiss mice; test: Example VI: subcutaneous PO4-ASARM-peptide or etidronate, calcein fluorescence and Sanderson osteoid staining; format: in vivo; conditions: PO4-ASARM-peptide 2 mg/kg/day
Description: Subcutaneous administration of PO4-ASARM-peptide, etidronate (EHDP), and calcein. Three separate groups of male ICR Swiss mice (4-5 weeks) were subcutaneously injected once a day (9:00AM), for 12 days except for days 6 and 7 with 50 μL solutions of either (1) Eitidronate (EHDP) (10 mg/kg/day); (2) PO4-ASARM-peptide (2 mg/kg/day); or (3) vehicle consisting of 5 mM HEPES pH 7.4/150 mM NaCL/0.1% BSA. The synthetic PO4-ASARM-peptide was dissolved in vehicle (1.0 mg/mL). Etidronate was first dissolved in 150 mM NaCl and then buffered to pH 7.5 with 1M NaOH to give a 5 mg/mL solution. The 10 mg/kg/day doses of etidronate have previously been reported to inhibit mineralization in rats and were used as positive controls (Trechsel, et al., Am J Physiol 232(3):E298-305, 1977; Bonjour, et al., Am J Physiol 229(2):402-8, 1975). All three groups were subcutaneously injected with calcein (20 mg/kg/day) on days 3, 5, […]. The degree of calcein fluorescence and/or fluorescence-quenching is an indicator of mineralization status (see next section). The calcein injections when given were administered 1 h after the daily injections of PO4-ASARM-peptide, EHDP or vehicle. Animals were then terminated humanely and calvariae plus femurs/tibia were fixed in 70% ethanol (non-decalcified). After fluorescence imaging (see FIG. 35) calvariae were processed in plastic and stained with Sanderson's stain (see below). Five animals per group were used for statistical analysis of fluorescence quenching and histological Sanderson staining.
Calcein fluorescence in mice calvariae, hind-limbs & fluor-imager analysis of mineralization. A Bio-Rad (Hercules, Calif.) FluorImager^max fluorescent imager was used to simultaneously image all the samples from each of the 3 groups (15 animals; five animals per group). This consisted of 10 tibia/femurs and 5 calvariae per group. Samples were placed on top of the FluorImager plate contained within a light-tight box. Ultra-violet light was used to generate calcein-mediated epi-fluorescence and the fluorescent-image was captured on a −40° C., peltier-cooled, 1,340×1040 pixel CCD resolution, CCD digital-camera. Quantitation of fluorescence was carried out using Quantity-1 (Bio-Rad, Hercules, Calif.) fluorescence-software. Pixel saturation was prevented by internal software calibration and exposure adjustment. All fluorescence readings were thus accurately quantitative and non-saturating. Photo-micrographic UV fluorescent analysis of calvarial cross sections embedded in plastic and mounted as slides (<100 micrometer sections) was also undertaken and a description of the fixation and processing is given in the next section.
Sanderson-staining and fluorescence detection of calvarial osteoid & mineralized bone. Staining of non-decalcified calvarial sections was performed using the method described by Sanderson and Bachus (Staining technique to differentiate mineralized and demineralized bone in ground sections, J Histotechnol 20(2): 119-122, 1997). This technique provides differential staining between unmineralized osteoid and mineralized bone. Prior to staining, calvariae were dissected and attached tissue removed. Calvariae were then placed in 70% ethanol for further fixation as described by Sanderson and Bachus (supra). After fixing and processing undecalcified calvariae were embedded in plastic (LR-white acrylic resin (London Resin Co., Reading, England)) as previously described (Garrett, et al., Selective inhibitors of the osteoblast proteasome stimulate bone formation in vivo and in vitro, J Clin Invest 111(11):1771-1782, 2003). Plastic embedded sections were ground to <100 micrometers using a specialized grinding-pestle as described by Donath and Breuner (A method for the study of undecalcified bones and teeth with attached soft tissues. The Sage-Schliff (sawing and grinding) technique, J Oral Pathol 11(4):318-26, 1982). […]

[2] = target: T1, MEPE-PHEX interaction (Homo sapiens, UniProt P78562); test: Surface plasmon resonance, peptide solution competition of secPHEX-MEPE binding
T1 construct: to generate a soluble, secreted form of PHEX; made in house; host or cells: secPHEX: mammalian cells (gift, University of Montreal); MEPE: S. frugiperda insect cells
T1 sequence (P78562 46-749 limits assumed): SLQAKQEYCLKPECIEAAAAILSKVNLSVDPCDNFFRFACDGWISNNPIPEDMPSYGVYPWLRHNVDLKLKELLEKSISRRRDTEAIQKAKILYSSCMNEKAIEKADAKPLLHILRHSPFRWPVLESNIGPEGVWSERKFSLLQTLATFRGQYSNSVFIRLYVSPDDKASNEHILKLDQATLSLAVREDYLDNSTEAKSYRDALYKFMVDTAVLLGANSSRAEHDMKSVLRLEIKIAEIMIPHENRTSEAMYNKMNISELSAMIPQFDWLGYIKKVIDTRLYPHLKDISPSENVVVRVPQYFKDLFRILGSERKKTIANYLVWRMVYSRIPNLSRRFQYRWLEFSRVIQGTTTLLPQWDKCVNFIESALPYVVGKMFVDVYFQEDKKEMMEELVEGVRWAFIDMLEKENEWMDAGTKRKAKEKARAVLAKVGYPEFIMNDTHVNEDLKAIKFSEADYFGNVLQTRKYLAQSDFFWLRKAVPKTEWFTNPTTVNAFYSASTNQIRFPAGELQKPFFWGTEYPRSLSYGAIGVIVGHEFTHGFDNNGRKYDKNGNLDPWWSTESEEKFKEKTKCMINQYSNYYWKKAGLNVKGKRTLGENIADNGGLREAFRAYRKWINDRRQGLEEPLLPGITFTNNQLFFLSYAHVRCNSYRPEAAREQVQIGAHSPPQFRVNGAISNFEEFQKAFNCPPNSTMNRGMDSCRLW
Text: Surface Plasmon Resonance: Synthetic peptides & competitive PHEX-MEPE binding studies. For these experiments CM-5 chips containing flow-cells immobilized with MEPE, PHEX and IgG ligands at 6000 RU were used. Just prior to SPR injection, stock solution of specific-peptide (as defined for each experiment; see Table 1), and dissolved in analyte buffer (HBS-P—Zn) […] The following equation was used to compute KDapp values: RU=Bmax/inhib×(peptide(μM))/KDapp+(peptide(μM)). The Bmax/inh value represents the maximal percentage inhibition change in RU (i.e., PHEX-MEPE binding) relative to the “non-peptide” control (0% inhibition of binding), using a constant analyte flow-solution of secPHEX of 250 nM against immobilized MEPE ligand at 6000 RU. […] The control MEPE-RGD peptide had no effect on MEPE-PHEX interactions.

[3] = test system: mouse osteoblast cell-line 2T3; test: Mineralized bone matrix formation assay (von Kossa), BMP2-induced; format: cell-based; conditions: 2T3 cells, BMP2 100 ng/mL; Hu-MEPE 10-800 ng/mL, ASARM-peptide 60 and 300 ng/mL, control peptide 300 ng/mL
Text: Mineralized bone matrix formation assay. A mouse osteoblast cell-line (2T3-cells) were monitored using a mineralized matrix formation assay as described by Bhargava et al. (Ultrastructural analysis of bone nodules formed in vitro by isolated fetal rat calvaria cells. Bone 9:155-63, 1988) and cultured as described previously (Bhargava et al., supra; Chen et al. Differential roles for bone morphogenetic protein (BMP) receptor type IB and IA in differentiation and specification of mesenchymal precursor cells to osteoblast and adipocyte lineages. J Cell Biol 142:295-305, 1998; and Zhao, et al. Bone morphogenetic protein receptor signaling is necessary for normal murine postnatal bone formation. J Cell Biol 157:1049-60, 2002). Mineralization of the murine osteoblastic 2T3 cell-line has been extensively studied using physical techniques, electron microscopy and histological techniques. This cell line (2T3) undergoes exogenous BMP2-induced mineralized-matrix indistinguishable from normal bone-mineral hydroxyapatite in-vitro (Bhargava et al., supra; Chen et al., supra; and Zhao et al., supra). The cells were plated in 24-well culture plates at density of 2×10^4 cells/well and cultured with minimal essential medium (MEM) supplemented with 10% FCS. When the cells reached confluency (day 0), the medium was changed to MEM containing 5% FCS, 100 μg/mL ascorbic acid and 5 mM β-glycerol phosphate with or without 100 ng/mL of BMP-2. The effects of Hu-MEPE, MEPE ASARM-peptide and control peptide at different doses (see results section) in the absence and presence of BMP2 were measured using the von Kossa stain for mineralization. The medium was changed every other day and fresh reagents were added. Von Kossa stain of mineralized bone matrix was performed as follows. The cell cultures were washed with PBS twice, fixed in phosphate buffered formalin for 10 min, and then washed with water, and serially dehydrated in 70%, 95%, and 100% ethanol, twice each and air dried. The plates were rehydrated from 100% to 95% to 80% ethanol to water before staining. The water was removed, a 2% silver nitrate solution was added, and the plates were exposed to sunlight for 20 min, after which the plates were rinsed with water. 5% sodium thiosulfate was added for 3 min and the plates were then rinsed with water. The modified van Gieson stain was then used as a counterstain after the von Kossa stain. The unmineralized collagen matrix can be recognized by the yellow/red van Gieson stain. The acid fuchsin solution (5 part of 1% acid fuchsin, 95 part of picric acid, and 0.25 part of 12 M HCl) was added for 5 min. The plates were washed with water, and then 2×95% ethanol and 2×100% ethanol, and dried for image analysis. The area of von Kossa stained matrix was quantitated as previously described (Chen et al., supra). Briefly matrix was quantified by automated image analysis using a video analysis program (Jandel Scientific, San Rafael Calif.) and also a Bio-Rad (Hercules, Calif.) Quantity-1 image analysis capture program. A video screen camera (CCD/RGB; Sony Corp., Park Ridge, N.J.) linked to a microscope (model BH2; Olympus Corp., Precision Instruments Division, Lake Success, N.Y.) equipped with metallurgical lens was used to image plates.

Row | Molecule | tibiae-femurs fluorescence-signal reduction relative to vehicle [1] | increase of osteoid layer thickness relative to vehicle ([1]; etidronate 10 mg/kg/day) | percentage quenching of calvarial calcein fluorescence relative to vehicle ([1]; etidronate 10 mg/kg/day) | calvariae calcein fluorescence ([1]; etidronate 10 mg/kg/day, s.c. 12 days, vehicle 1100.5) | calvarial osteoid relative thickness (Sanderson staining) ([1]; etidronate 10 mg/kg/day, vehicle 2.3) | tibiae-femurs calcein fluorescent intensity ([1]; vehicle 268.52) | Bmax/inh, maximal percentage-inhibition of MEPE-PHEX binding ([2]; 250 nM secPHEX, MEPE 6000 RU) | Kd ([2]; 250 nM secPHEX, MEPE 6000 RU, read-out: apparent KDapp, solution competition of MEPE-PHEX binding) | Kd ([2]; apparent KDapp, solution competition of secPHEX-MEPE binding, 250 nM secPHEX, MEPE 6000 RU (FIG. 34 legend), heading: apparent KDapp, solution competition of secPHEX-MEPE binding) | inhibition of MEPE-PHEX interaction ([2]; peptide pre-mixed with secPHEX, MEPE-RGD up to 85 μM) | effect on BMP2-mediated mineralization (von Kossa staining) [3]
1 | N=C(N)NCCC[C@H](N)C(=O)N[C@@H](CC(=O)O)C(=O)N[C@@H](CC(=O)O)C(=O)N[C@@H](CO)C(=O)N[C@@H](CO)C(=O)N[C@@H](CCC(=O)O)C(=O)N[C@@H](CO)C(=O)N[C@@H](CO)C(=O)N[C@@H](CC(=O)O)C(=O)N[C@@H](CO)C(=O)NCC(=O)N[C@@H](COP(=O)(O)O)C(=O)N[C@@H](CO)C(=O)N[C@@H](COP(=O)(O)O)C(=O)N[C@@H](CCC(=O)O)C(=O)N[C@@H](COP(=O)(O)O)C(=O)N[C@@H](CC(=O)O)C(=O)NCC(=O)N[C@@H](CC(=O)O)C(=O)O [PO4-ASARM-peptide, RDDSSESSDSG(Sp)S(Sp)E(Sp)DGD] (H-RDDSSESSDSG[pS]S[pS]E[pS]DGD-OH) | 44.5% | 3.5 fold | 62% | 568.7 fluorescent intensity units | 8.0 | 148.9 | 68% | 15 µM | 15 µM | able to inhibit; also recorded: dramatic dose-dependent inhibition | 
2 | CGSGYTDLQERGDNDISPFSGDGQPF (Homo sapien) [control peptide, reference compound] |  |  |  |  |  |  |  |  |  |  | failed to elicit any changes in mineralization

From patent publication US20070099822A1, “Regulation of tissue mineralization and phosphate metabolism by asarm peptides” (priority 2003, published 2007)
